Test results reported in ChEMBL document CHEMBL3994622, “Design and synthesis of new RAF kinase-inhibiting antiproliferative quinoline derivatives. Part 2: Diarylurea derivatives” (Eur J Med Chem, 2017).

How the values were obtained:
Type in all cases: functional
T47D = assay: Growth inhibition of human T47D cells assessed as cell growth at 100 uM incubated for 48 hrs by sulforhodamine B assay relative to control; details: read-out: Activity
NCI-H460 = assay: Growth inhibition of human NCI-H460 cells assessed as cell growth at 100 uM incubated for 48 hrs by sulforhodamine B assay relative to control; details: NCI-H460, 48 h, read-out: Activity
UO-31 = assay: Growth inhibition of human UO31 cells assessed as cell growth at 0.1 uM incubated for 48 hrs by sulforhodamine B assay relative to control; details: UO-31, 48 h, read-out: Activity
HCT-15 = assay: Growth inhibition of human HCT15 cells assessed as cell growth at 0.1 uM incubated for 48 hrs by sulforhodamine B assay relative to control; details: HCT-15, 48 h, read-out: Activity
MDA-MB-435 = assay: Growth inhibition of human MDA-MB-435 cells assessed as cell growth at 100 uM incubated for 48 hrs by sulforhodamine B assay relative to control; details: MDA-MB-435, 48 h, read-out: Activity
SR = assay: Growth inhibition of human SR cells assessed as cell growth at 100 uM incubated for 48 hrs by sulforhodamine B assay relative to control; details: read-out: Activity
OVCAR-3 [1] = assay: Growth inhibition of human OVCAR3 cells assessed as cell growth at 0.1 uM incubated for 48 hrs by sulforhodamine B assay relative to control; details: OVCAR-3, 48 h, read-out: Activity
SW-620 = assay: Growth inhibition of human SW620 cells assessed as cell growth at 100 uM incubated for 48 hrs by sulforhodamine B assay relative to control; details: SW-620, 48 h, read-out: Activity
SK-OV-3 = assay: Growth inhibition of human SKOV3 cells assessed as cell growth at 1 uM incubated for 48 hrs by sulforhodamine B assay relative to control; details: SK-OV-3, 48 h, read-out: Activity
CCRF-CEM = assay: Growth inhibition of human CCRF-CEM cells assessed as cell growth at 1 uM incubated for 48 hrs by sulforhodamine B assay relative to control; details: read-out: Activity
HCC 2998 = assay: Growth inhibition of human HCC2998 cells assessed as cell growth at 10 uM incubated for 48 hrs by sulforhodamine B assay relative to control; details: HCC 2998, 48 h, read-out: Activity
PC-3 = assay: Growth inhibition of human PC3 cells assessed as cell growth at 100 uM incubated for 48 hrs by sulforhodamine B assay relative to control; details: PC-3, 48 h, read-out: Activity
EKVX = assay: Growth inhibition of human EKVX cells assessed as cell growth at 0.01 uM incubated for 48 hrs by sulforhodamine B assay relative to control; details: read-out: Activity
A549 [2] = assay: Growth inhibition of human A549/ATCC cells assessed as cell growth at 100 uM incubated for 48 hrs by sulforhodamine B assay relative to control; details: A549, 48 h, read-out: Activity
OVCAR-3 [3] = assay: Growth inhibition of human OVCAR3 cells assessed as cell growth at 10 uM incubated for 48 hrs by sulforhodamine B assay relative to control; details: OVCAR-3, 48 h, read-out: Activity
786-0 = assay: Growth inhibition of human 786-0 cells assessed as cell growth at 100 uM incubated for 48 hrs by sulforhodamine B assay relative to control; details: 786-0, 48 h, read-out: Activity
SK-MEL-2 = assay: Growth inhibition of human SK-MEL-2 cells assessed as cell growth at 0.01 uM incubated for 48 hrs by sulforhodamine B assay relative to control; details: SK-MEL-2, 48 h, read-out: Activity
SF-268 = assay: Growth inhibition of human SF268 cells assessed as cell growth at 0.1 uM incubated for 48 hrs by sulforhodamine B assay relative to control; details: SF-268, 48 h, read-out: Activity
KM12 = assay: Growth inhibition of human KM12 cells assessed as cell growth at 100 uM incubated for 48 hrs by sulforhodamine B assay relative to control; details: KM12, 48 h, read-out: Activity
OVCAR-4 = assay: Growth inhibition of human OVCAR4 cells assessed as cell growth at 3 uM incubated for 48 hrs by sulforhodamine B assay relative to control; details: OVCAR-4, 48 h, read-out: Activity
A549 [4] = assay: Growth inhibition of human A549/ATCC cells assessed as cell growth at 0.03 uM incubated for 48 hrs by sulforhodamine B assay relative to control; details: A549, 48 h, read-out: Activity
SK-MEL-28 = assay: Growth inhibition of human SK-MEL-28 cells assessed as cell growth at 30 uM incubated for 48 hrs by sulforhodamine B assay relative to control; details: SK-MEL-28, 48 h, read-out: Activity
NCI-H322M = assay: Growth inhibition of human NCI-H322M cells assessed as cell growth at 0.003 uM incubated for 48 hrs by sulforhodamine B assay relative to control; details: read-out: Activity
Malme-3M = assay: Growth inhibition of human MALME-3M cells assessed as cell growth at 0.03 uM incubated for 48 hrs by sulforhodamine B assay relative to control; details: read-out: Activity
U-251 [5] = assay: Growth inhibition of human U251 cells assessed as cell growth at 0.03 uM incubated for 48 hrs by sulforhodamine B assay relative to control; details: U-251, 48 h, read-out: Activity
A549 [6] = assay: Growth inhibition of human A549/ATCC cells assessed as cell growth at 0.003 uM incubated for 48 hrs by sulforhodamine B assay relative to control; details: A549, 48 h, read-out: Activity
IGROV-1 = assay: Growth inhibition of human IGROV1 cells assessed as cell growth at 30 uM incubated for 48 hrs by sulforhodamine B assay relative to control; details: IGROV-1, 48 h, read-out: Activity
MDA-MB-231 = assay: Growth inhibition of human MDA-MB-231 cells assessed as cell growth at 3 uM incubated for 48 hrs by sulforhodamine B assay relative to control; details: MDA-MB-231, 48 h, read-out: Activity
OVCAR-8 = assay: Growth inhibition of human OVCAR8 cells assessed as cell growth at 0.3 uM incubated for 48 hrs by sulforhodamine B assay relative to control; details: OVCAR-8, 48 h, read-out: Activity
OVCAR-5 [7] = assay: Growth inhibition of human OVCAR5 cells assessed as cell growth at 0.03 uM incubated for 48 hrs by sulforhodamine B assay relative to control; details: OVCAR-5, 48 h, read-out: Activity
U-251 [8] = assay: Growth inhibition of human U251 cells assessed as cell growth at 0.003 uM incubated for 48 hrs by sulforhodamine B assay relative to control; details: U-251, 48 h, read-out: Activity
OVCAR-3 [9] = assay: Growth inhibition of human OVCAR3 cells assessed as cell growth at 0.003 uM incubated for 48 hrs by sulforhodamine B assay relative to control; details: OVCAR-3, 48 h, read-out: Activity
COLO 205 = assay: Growth inhibition of human COLO205 cells assessed as cell growth at 0.3 uM incubated for 48 hrs by sulforhodamine B assay relative to control; details: COLO 205, 48 h, read-out: Activity
OVCAR-5 [10] = assay: Growth inhibition of human OVCAR5 cells assessed as cell growth at 0.003 uM incubated for 48 hrs by sulforhodamine B assay relative to control; details: OVCAR-5, 48 h, read-out: Activity

| SMILES | growth at 100 µM (T47D) | growth at 100 µM (NCI-H460) | growth at 0.1 µM (UO-31) | growth at 0.1 µM (HCT-15) | growth at 100 µM (MDA-MB-435) | growth at 100 µM (SR) | growth at 0.1 µM (OVCAR-3 [1]) | growth at 100 µM (SW-620) | growth at 1 µM (SK-OV-3) | growth at 1 µM (CCRF-CEM) | growth at 10 µM (HCC 2998) | growth at 100 µM (PC-3) | growth at 0.01 µM (EKVX) | growth at 100 µM (A549 [2]) | growth at 10 µM (OVCAR-3 [3]) | growth at 100 µM (786-0) | growth at 0.01 µM (SK-MEL-2) | growth at 0.1 µM (SF-268) | growth at 100 µM (KM12) | growth at 3 µM (OVCAR-4) | further results |
| --- | --- | --- | --- | --- | --- | --- | --- | --- | --- | --- | --- | --- | --- | --- | --- | --- | --- | --- | --- | --- | --- |
| COc1cc2cc(Oc3ccc(NC(=O)Nc4ccc(Cl)c(Cl)c4)cc3)c(C)nc2cc1OC | -54% | -76% | 101% | 102% | -45% | -48% | 116% | -68% | 112% | 78% | 34% | -96% | 94% | -100% | -25% | -66% | 116% | 109% | -58% |  |  |
| COc1cc2cc(Oc3ccc(NC(=O)Nc4cc(C(F)(F)F)cc(C(F)(F)F)c4)cc3)c(C)nc2cc1OC | -82% | -73% | 73% | 94% | -63% | -19% | 101% | -66% | 88% | 39% | -80% | -57% | 89% | -85% | -90% | -83% | 106% | 92% | -74% |  |  |
| COc1cc2cc(Oc3ccc(NC(=O)Nc4ccc(Cl)c(C(F)(F)F)c4)cc3)c(C)nc2cc1OC |  |  |  |  |  |  |  |  |  |  |  |  |  |  |  |  |  |  |  | 23% | growth at 0.03 µM (A549 [4]): 100%; growth at 30 µM (SK-MEL-28): -92%; growth at 0.003 µM (NCI-H322M): 91%; growth at 0.03 µM (Malme-3M): 100%; growth at 0.03 µM (U-251 [5]): 97%; growth at 0.003 µM (A549 [6]): 94%; growth at 30 µM (IGROV-1): -42%; growth at 3 µM (MDA-MB-231): -29%; growth at 0.3 µM (OVCAR-8): 96%; growth at 0.03 µM (OVCAR-5 [7]): 102%; growth at 0.003 µM (U-251 [8]): 97%; growth at 0.003 µM (OVCAR-3 [9]): 100%; growth at 0.3 µM (COLO 205): 102%; growth at 0.003 µM (OVCAR-5 [10]): 96% |
| Cc1nc2cc(O)c(O)cc2cc1Oc1ccc(NC(=O)Nc2ccc(Cl)c(Cl)c2)cc1 |  |  |  |  |  |  |  |  |  |  |  |  |  |  |  |  |  |  |  | 87% | growth at 0.03 µM (A549 [4]): 98%; growth at 30 µM (SK-MEL-28): -3%; growth at 0.003 µM (NCI-H322M): 103%; growth at 0.03 µM (Malme-3M): 101%; growth at 0.03 µM (U-251 [5]): 94%; growth at 0.003 µM (A549 [6]): 100%; growth at 30 µM (IGROV-1): 17%; growth at 3 µM (MDA-MB-231): 41%; growth at 0.3 µM (OVCAR-8): 94%; growth at 0.03 µM (OVCAR-5 [7]): 100%; growth at 0.003 µM (U-251 [8]): 95%; growth at 0.003 µM (OVCAR-3 [9]): 105%; growth at 0.3 µM (COLO 205): 109%; growth at 0.003 µM (OVCAR-5 [10]): 102% |
